Measured values published in patent US20110082157A1, “Piperidinylamino-Thieno [2,3-D] Pyrimidine Compounds” (priority 2004, published 2011).
Where two headings read alike, the source gives them in different places.

Columns and labels:
5HT2A [1] = biological target: T1, 5HT2A (Homo sapiens, UniProt P28223); assay: 5HT2A binding (Ki)
IP3 = assay: IC50 (IP3); type: cell-based
Rat pK = conditions: in vivo; for bioavailability: read-out: Rat pK: % F
AMES Test = type: cell-based
% Protein Binding = type: in vitro ADME
D2S [2] = biological target: T2, D2S (Homo sapiens, UniProt P14416); assay: D2S binding (Ki)
T2 sequence (P14416 1-414 isoform P14416-2): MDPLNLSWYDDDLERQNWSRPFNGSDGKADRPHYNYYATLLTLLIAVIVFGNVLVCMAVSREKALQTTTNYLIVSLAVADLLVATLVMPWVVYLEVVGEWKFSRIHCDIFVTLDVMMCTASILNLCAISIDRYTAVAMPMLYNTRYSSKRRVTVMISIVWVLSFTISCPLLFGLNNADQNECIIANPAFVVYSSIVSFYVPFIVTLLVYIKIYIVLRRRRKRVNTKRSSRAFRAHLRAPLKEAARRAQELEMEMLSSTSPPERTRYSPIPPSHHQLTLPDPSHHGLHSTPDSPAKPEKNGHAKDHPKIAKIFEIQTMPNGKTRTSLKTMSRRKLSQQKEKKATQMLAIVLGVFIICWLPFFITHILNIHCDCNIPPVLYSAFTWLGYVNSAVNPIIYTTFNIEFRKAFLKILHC

5HT2A [3] = biological target: T1, 5HT2A; assay: Functional activity 5HT2A; type: cell-based
5HT1A [4] = biological target: T3, 5HT1A (Homo sapiens, UniProt P08908); assay: 5HT1A binding (Ki)
T3 sequence (P08908 1-422): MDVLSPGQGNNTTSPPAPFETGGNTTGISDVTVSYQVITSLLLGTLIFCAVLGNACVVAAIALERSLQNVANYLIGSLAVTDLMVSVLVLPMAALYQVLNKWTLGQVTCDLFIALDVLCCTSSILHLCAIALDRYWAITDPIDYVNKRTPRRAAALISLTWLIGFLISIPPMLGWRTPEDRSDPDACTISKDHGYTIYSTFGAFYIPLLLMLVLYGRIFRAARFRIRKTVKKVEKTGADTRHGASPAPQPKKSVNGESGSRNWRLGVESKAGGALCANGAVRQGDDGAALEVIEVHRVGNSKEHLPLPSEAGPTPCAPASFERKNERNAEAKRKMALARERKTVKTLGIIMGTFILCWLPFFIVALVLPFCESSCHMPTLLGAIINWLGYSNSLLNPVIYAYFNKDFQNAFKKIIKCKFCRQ

D2L = D2L (Homo sapiens, UniProt P14416); assay: Functional activity D2L; type: cell-based
Sequence of D2L (P14416 whole entry): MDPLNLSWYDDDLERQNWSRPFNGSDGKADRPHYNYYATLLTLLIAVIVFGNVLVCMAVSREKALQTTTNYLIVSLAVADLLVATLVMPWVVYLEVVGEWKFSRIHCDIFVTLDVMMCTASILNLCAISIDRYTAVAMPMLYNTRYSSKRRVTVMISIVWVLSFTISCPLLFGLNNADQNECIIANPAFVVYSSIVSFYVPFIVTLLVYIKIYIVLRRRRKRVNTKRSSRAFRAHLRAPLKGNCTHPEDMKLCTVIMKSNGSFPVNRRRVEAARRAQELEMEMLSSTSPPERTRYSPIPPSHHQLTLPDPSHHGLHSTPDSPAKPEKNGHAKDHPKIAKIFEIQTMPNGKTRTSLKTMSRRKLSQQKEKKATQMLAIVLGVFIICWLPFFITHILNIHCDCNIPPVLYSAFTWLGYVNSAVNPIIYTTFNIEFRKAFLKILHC

hERG = hERG (Homo sapiens, UniProt Q12809); assay: hERG % inhibition at 1 uM
Sequence of hERG (Q12809 whole entry): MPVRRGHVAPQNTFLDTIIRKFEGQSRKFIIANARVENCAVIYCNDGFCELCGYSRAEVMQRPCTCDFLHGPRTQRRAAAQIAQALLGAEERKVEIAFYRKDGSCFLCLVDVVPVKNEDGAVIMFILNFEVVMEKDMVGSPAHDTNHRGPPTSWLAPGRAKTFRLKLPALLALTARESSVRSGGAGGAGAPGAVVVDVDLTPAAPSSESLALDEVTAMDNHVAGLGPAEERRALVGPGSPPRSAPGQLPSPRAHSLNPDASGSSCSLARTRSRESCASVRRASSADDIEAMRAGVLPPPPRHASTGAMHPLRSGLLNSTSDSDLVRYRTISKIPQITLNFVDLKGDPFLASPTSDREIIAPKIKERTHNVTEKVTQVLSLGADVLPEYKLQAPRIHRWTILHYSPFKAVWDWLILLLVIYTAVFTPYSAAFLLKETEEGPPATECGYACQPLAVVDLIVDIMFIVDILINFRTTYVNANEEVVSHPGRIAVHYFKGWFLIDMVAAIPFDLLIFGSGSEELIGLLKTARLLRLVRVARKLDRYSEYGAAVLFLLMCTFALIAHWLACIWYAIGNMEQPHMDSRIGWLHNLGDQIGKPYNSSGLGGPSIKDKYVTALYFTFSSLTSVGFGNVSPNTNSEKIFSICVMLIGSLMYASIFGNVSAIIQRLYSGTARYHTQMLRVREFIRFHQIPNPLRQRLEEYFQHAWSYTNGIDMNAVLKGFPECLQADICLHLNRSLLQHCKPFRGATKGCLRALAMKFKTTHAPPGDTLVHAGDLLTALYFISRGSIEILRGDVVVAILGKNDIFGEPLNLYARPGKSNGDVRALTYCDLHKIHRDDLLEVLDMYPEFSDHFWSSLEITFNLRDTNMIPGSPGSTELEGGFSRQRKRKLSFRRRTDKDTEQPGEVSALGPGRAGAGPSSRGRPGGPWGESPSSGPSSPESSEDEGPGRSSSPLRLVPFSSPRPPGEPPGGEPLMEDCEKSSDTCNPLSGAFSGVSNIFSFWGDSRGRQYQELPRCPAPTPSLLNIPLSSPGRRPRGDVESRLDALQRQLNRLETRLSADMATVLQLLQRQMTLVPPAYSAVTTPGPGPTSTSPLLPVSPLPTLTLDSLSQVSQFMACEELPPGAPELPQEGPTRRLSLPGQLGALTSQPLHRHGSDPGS

D2S [5] = biological target: T2, D2S; assay: Functional activity D2S; type: cell-based
5HT2B = 5HT2B (Homo sapiens, UniProt P41595); assay: Functional activity IC50 (5HT2B antagonist); type: cell-based
Sequence of 5HT2B (P41595 whole entry, species assumed): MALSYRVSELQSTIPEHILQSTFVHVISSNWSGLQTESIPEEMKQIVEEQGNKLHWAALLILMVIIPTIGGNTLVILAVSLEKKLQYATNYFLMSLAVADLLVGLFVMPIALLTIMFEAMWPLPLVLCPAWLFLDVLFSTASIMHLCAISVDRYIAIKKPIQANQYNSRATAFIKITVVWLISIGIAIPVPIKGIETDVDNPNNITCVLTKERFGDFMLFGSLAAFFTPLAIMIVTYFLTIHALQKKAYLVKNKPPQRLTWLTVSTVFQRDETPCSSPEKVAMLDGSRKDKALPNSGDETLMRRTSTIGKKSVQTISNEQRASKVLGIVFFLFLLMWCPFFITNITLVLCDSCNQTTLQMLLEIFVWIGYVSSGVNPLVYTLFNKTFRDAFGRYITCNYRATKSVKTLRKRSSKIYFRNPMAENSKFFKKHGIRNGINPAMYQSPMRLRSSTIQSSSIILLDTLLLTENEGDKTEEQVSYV

D4.4 = biological target: T4, D4.4 (Homo sapiens, UniProt P21917); assay: D4.4 binding (Ki)
T4 sequence (P21917 1-419): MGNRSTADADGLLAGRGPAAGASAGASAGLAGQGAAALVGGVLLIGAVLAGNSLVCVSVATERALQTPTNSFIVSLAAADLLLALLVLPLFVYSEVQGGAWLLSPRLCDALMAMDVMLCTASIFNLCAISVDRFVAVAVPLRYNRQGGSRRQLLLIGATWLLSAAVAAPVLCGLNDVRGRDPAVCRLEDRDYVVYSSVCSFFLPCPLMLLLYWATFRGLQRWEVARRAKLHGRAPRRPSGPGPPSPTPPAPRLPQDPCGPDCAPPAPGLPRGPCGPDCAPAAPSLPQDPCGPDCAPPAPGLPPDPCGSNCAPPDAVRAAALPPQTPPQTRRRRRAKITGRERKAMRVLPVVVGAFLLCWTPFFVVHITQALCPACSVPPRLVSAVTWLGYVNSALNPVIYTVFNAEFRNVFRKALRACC

5HT1A [6] = biological target: T3, 5HT1A; assay: Functional activity 5HT1A; type: cell-based
D3 = D3 (Homo sapiens, UniProt P35462); assay: D3 binding (Ki)
Sequence of D3 (P35462 whole entry): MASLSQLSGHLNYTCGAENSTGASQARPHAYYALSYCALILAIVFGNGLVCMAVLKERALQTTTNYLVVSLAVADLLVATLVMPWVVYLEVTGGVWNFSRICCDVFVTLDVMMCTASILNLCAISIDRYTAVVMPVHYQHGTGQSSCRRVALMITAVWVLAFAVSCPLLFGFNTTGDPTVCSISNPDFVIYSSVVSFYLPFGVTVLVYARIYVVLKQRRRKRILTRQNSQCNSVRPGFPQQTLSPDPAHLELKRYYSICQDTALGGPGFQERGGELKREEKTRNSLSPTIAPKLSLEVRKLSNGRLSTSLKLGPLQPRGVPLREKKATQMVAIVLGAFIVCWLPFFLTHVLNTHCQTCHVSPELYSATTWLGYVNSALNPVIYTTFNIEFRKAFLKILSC

s 1 = s 1 (Homo sapiens, UniProt Q99720); assay: s 1 binding (Ki)
Sequence of s 1 (Q99720 whole entry): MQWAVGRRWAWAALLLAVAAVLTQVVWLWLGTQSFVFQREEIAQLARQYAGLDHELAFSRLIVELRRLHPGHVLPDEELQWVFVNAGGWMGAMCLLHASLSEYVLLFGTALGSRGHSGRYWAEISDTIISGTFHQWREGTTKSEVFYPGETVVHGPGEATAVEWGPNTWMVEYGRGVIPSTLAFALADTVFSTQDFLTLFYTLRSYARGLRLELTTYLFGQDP

Na chan = assay: Na channel binding (Ki)
HLM T1/2 = conditions: human, liver microsomes
D2 = D2 (Homo sapiens, UniProt P14416); assay: Functional activity D2 (agonist / antagonist); type: cell-based
Sequence of D2 (P14416 whole entry): as the sequence (P14416 whole entry) above

D1 = D1 (Homo sapiens, UniProt P21728); assay: D1 binding (Ki)
Sequence of D1 (P21728 whole entry): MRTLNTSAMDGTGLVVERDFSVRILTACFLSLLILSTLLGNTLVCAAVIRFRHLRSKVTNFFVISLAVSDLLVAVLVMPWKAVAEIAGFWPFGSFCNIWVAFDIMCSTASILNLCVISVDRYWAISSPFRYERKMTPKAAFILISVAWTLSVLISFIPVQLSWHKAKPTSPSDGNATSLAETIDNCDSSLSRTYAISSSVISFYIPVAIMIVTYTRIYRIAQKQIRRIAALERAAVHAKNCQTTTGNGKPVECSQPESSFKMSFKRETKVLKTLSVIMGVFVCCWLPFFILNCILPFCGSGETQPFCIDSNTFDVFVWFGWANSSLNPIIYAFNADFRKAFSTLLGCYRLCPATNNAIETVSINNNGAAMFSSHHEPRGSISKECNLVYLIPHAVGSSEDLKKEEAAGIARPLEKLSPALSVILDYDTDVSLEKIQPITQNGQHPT

Mouse pK = conditions: in vivo
D4 = biological target: T5, D4 (Homo sapiens, UniProt P21917); assay: D4 binding (Ki)
T5 sequence (P21917 1-419): T4 sequence (P21917 1-419)

[7] = iv, read-out: Rat pK: T1/2 (iv)
[8] = po, read-out: Rat pK: T1/2 (po)

T1 sequence (P28223 whole entry, species assumed): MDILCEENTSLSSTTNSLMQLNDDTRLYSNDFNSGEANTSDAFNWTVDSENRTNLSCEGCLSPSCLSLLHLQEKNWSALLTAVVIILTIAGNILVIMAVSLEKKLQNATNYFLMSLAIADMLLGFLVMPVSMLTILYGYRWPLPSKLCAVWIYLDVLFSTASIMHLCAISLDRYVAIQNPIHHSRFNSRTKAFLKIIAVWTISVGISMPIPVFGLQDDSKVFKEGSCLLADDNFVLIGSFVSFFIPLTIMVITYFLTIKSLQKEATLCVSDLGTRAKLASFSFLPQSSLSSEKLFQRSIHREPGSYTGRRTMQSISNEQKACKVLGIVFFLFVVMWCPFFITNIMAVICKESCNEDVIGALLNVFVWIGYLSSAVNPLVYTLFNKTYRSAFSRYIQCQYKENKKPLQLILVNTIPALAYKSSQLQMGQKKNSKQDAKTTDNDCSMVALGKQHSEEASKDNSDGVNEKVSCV

Row | half-life (HLM T1/2) [min] | Ki (D2S [2]) [µM] | Ki (D4; read-out: Ki (D4)) [µM] | Compound | IC50 (IP3) [µM] | half-life (Rat pK; [7]) [min] | bioavailability (Rat pK; po) [%] | half-life (Rat pK; [8]) [min] | AMES Test (AMES Test) | fraction unbound (% Protein Binding) | Ki (D2S [2]; NA: Not Active) [µM] | Ki (5HT1A [4]) [µM] | hERG (% Inhibition at 1 uM) (hERG) [%] | IC50 (5HT2B) [µM] | Ki (D4.4) [µM] | Ki (D3) [µM] | other results
1 | – | – | – | Fc1cc(F)cc(CN2CCC(Nc3ncnc4sc(Cl)cc34)CC2)c1.O=C(O)/C=C\C(=O)O [Example B34, N-(1-(3,5-difluorobenzyl)piperidin-4-yl)-6-chlorothieno[2,3-d]pyrimidin-4-amine, monomaleate] | 0.00074 | 24 | 29.1 | 66 | Negative | 0.01 | 0.066 | 0.035 | 29.4 | 0.68 | 0.0034 | 0.14 | Ki (5HT2A [1]): 0.26 µM; Functional Activity IC50 (5HT2A) (5HT2A [3]): Not Active; IC50 (D2L): 0.0172 µM; IC50 (D2S [5]): 0.0633 µM; Functional Activity IC50 (5HT1A) (5HT1A [6]): Not Active
2 | – | – | – | Cc1c(Cl)sc2ncnc(NC3CCN(Cc4cccc(F)c4)CC3)c12.O=C(O)/C=C\C(=O)O [Example B38, N-(1-(3-fluorobenzyl)piperidin-4-yl)-6-chloro-5-methylthieno[2,3-d]pyrimidin-4-amine, monomaleate] | 0.00227 | 24 | 18.2 | 54 | – | 0.062 | 0.17 | – | 78.1 | 0.56 | – | – | –
3 | – | – | – | Fc1cccc(CN2CCC(Nc3ncnc4sc(Cl)cc34)CC2)c1.O=C(O)/C=C\C(=O)O [Example B42, N-(1-(3-fluorobenzyl)piperidin-4-yl)-6-chlorothieno[2,3-d]pyrimidin-4-amine, monomaleate] | 0.0017 | 24 | 22.4 | 72 | Negative | 0.017 | 0.17 | 0.017 | 50.1 | 0.11 | 0.0047 | 0.026 | Ki (5HT2A [1]): 0.052 µM; Ki (s 1): 0.0067 µM; IC50 (5HT2A [3]): 0.34 µM; Ki (Na chan): 0.25 µM; IC50 (D2L): 0.162 µM; IC50 (D2S [5]): 0.292 µM; Functional Activity IC50 (5HT1A) (5HT1A [6]): Not Active
4 | 28 | – | – | N#Cc1cc(CN2CCC(Nc3ncnc4sc(Cl)cc34)CC2)ccc1F [Example B50, 5-((4-(6-chlorothieno [2,3-d]pyrimidin-4-ylamino)piperidin-1-yl)methyl)-2-fluorobenzonitrile, monomaleate] | – | 37.2 | 22.6 | 53.4 | Negative | – | 0.67 | 0.1 | 23.7 | 0.027 | 0.0054 | – | –
5 | < 15 | 3.1 | 0.18 | O=S(=O)(c1cccc(CN2CCC(Nc3ncnc4sc(Cl)cc34)CC2)c1)C(F)(F)F [Example B56, N-(1-(3-(trifluoromethylsulfonyl)benzyl)piperidin-4-yl)-6-chlorothieno[2,3-d] pyrimidin-4-amine, monomaleate] | – | – | – | – | – | – | – | – | – | – | – | – | –
6 | 24 | – | 0.54 | CN(C)C(=O)c1cccc(CN2CCC(Nc3ncnc4sc(Cl)cc34)CC2)c1 [Example B57, 3-((4-(6-chlorothieno[2,3-d]pyrimidin-4-ylamino)piperidin-1-yl)methyl)-N,N-dimethylbenzamide, monomaleate] | – | – | – | – | – | – | – | – | – | – | – | – | –
7 | 27 | > 10 | 0.43 | CS(=O)(=O)c1cccc(CN2CCC(Nc3ncnc4sc(Cl)cc34)CC2)c1 [Example B58, N-(1-(3-(methylsulfonyl)benzyl)piperidin-4-yl)-6-chlorothieno[2,3-d]pyrimidin-4-amine, monomaleate] | – | – | – | – | – | – | – | – | – | – | – | – | –

Row | Compound | half-life (HLM T1/2) [min] | Ki (D2S [2]) [µM] | Ki (D4; read-out: Ki (D4)) [µM] | IC50 (IP3) [µM] | half-life (Rat pK; [7]) [min] | bioavailability (Rat pK; po) [%] | half-life (Rat pK; [8]) [min] | AMES Test (AMES Test) | fraction unbound (% Protein Binding) | Ki (D2S [2]; NA: Not Active) [µM] | Ki (5HT1A [4]) [µM] | hERG (% Inhibition at 1 uM) (hERG) [%] | IC50 (5HT2B) [µM] | Ki (D4.4) [µM] | Ki (D3) [µM] | other results
8 | N#Cc1cccc(CN2CCC(Nc3ncnc4sc(Cl)cc34)CC2)c1 [Example B43, 3-((4-(6-chlorothieno [2,3-d]pyrimidin-4-ylamino)piperidin-1-yl)methyl) benzonitrile, monomaleate] | 22 | 1 | – | 0.00148 | 44.4 | 17.2 | 91.8 | Negative | 0.018 | – | 0.28 | 47.3 | 0.0175 | 0.025 | 1.3 | EC50 (D2; agonist): 0.92 µM; IC50 (D2) (D2; antagonist): No antagonist activity; Ki (D1): 1.2 µM; Ki (s 1): 0.011 µM; Ki (Na chan): 0.97 µM; bioavailability (Mouse pK; ip, read-out: Mouse pK: % F): 87%; half-life (Mouse pK; ip, read-out: Mouse pK: T1/2 (ip)): 30 min; half-life (Mouse pK; iv, read-out: Mouse pK: T1/2 (iv)): 26 min
9 | CNC(=O)c1cccc(CN2CCC(Nc3ncnc4sc(Cl)cc34)CC2)c1 [Example B55, 3-((4-(6-chlorothieno [2,3-d]pyrimidin-4-ylamino)piperidin-1-yl)methyl)-N-methylbenzamide, monomaleate] | 34 | – | – | – | – | – | – | – | – | – | – | – | – | – | – | Ki (D4): 0.33 µM
